In patent publication US8076338B2, “Kinase modulators and methods of use” (Exelixis, Inc., priority 2004, dated 2011):
Like-named read-outs stand apart in the source and are kept apart here.

Assays:
AktK = AktK (Homo sapiens, UniProt P31749); experiment: Luciferase-coupled chemiluminescence kinase assay (ATP consumption); type: biochemical; settings: read-out: AKT-1 IC50
In short: (§1)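 Enzyme at 2.5-5 nM was preincubated 30 min at room temperature with compound in Tris pH 7.5, MgCl2, TX-100, DTT, then reacted with ATP for 3 h at ambient temperature. Remaining ATP was quantified by luciferase-luciferin chemiluminescence, with consumption kept at 25-60%; […].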

p70S6K = p70S6K (Homo sapiens, UniProt P23443); experiment: as above; type: biochemical
In short: as §1

Chain of AktK (P31749 whole entry): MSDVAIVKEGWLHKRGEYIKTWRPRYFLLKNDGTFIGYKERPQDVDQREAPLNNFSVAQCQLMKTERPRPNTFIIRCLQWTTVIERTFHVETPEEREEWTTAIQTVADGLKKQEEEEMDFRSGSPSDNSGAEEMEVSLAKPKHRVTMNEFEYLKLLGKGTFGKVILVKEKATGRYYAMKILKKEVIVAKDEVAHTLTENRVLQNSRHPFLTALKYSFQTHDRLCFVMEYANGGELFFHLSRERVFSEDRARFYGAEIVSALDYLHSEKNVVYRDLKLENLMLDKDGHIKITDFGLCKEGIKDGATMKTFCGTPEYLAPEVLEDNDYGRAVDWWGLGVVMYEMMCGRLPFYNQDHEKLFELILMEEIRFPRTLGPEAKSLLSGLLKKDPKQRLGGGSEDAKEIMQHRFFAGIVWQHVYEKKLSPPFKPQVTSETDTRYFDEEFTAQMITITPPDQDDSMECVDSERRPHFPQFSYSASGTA
Chain of p70S6K (P23443 whole entry): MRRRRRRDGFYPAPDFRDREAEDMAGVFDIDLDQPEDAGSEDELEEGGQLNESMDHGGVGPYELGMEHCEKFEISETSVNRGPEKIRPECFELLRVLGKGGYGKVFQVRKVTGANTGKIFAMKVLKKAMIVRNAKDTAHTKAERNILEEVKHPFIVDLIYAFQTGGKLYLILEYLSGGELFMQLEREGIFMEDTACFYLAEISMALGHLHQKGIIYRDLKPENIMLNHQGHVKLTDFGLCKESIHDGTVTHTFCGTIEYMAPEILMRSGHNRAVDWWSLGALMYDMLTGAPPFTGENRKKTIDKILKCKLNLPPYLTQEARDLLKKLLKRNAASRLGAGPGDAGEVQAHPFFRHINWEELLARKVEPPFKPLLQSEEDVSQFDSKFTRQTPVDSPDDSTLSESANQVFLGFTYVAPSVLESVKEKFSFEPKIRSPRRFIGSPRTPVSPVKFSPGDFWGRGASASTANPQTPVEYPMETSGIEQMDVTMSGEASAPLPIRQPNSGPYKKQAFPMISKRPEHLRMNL

Compound `CCCCC(=O)c1cc(NCCN2CCCC2)c(C)c(N2CCN(c3ncnc4[nH]nc(Br)c34)CC2)c1` [Entry 228, 1-{3-[4-(3-bromo-1H-pyrazolo[3,4-d]pyrimidin-4-yl)piperazin-1-yl]-4-methyl-5-[(2-pyrrolidin-1-ylethyl)amino]phenyl}pentan-1-one] has an IC50 (AktK; Table 1, class symbols per key) of less than 0.1 µM and an IC50 (p70S6K; Table 1, class symbols per key) of less than 0.1 µM.

`O=C(COc1cccc(N2CCN(c3ncnc4[nH]nc(Br)c34)CC2)c1)NC1CC1` [Entry 166, 2-({3-[4-(3-bromo-1H-pyrazolo[3,4-d]pyrimidin-4-yl)piperazin-1-yl]phenyl}oxy)-N-cyclopropylacetamide] was tested, and the IC50 (AktK; Table 1, class symbols per key) was 1 to 10 µM and the IC50 (p70S6K; Table 1, class symbols per key) was less than 0.1 µM.

In the case of `CCN(CC)CCOc1cccc(N2CCN(c3ncnc4[nH]nc(Br)c34)CC2)c1` [Entry 189, 2-({3-[4-(3-bromo-1H-pyrazolo[3,4-d]pyrimidin-4-yl)piperazin-1-yl]phenyl}oxy)-N,N-diethylethanamine], the IC50 (AktK; Table 1, class symbols per key) is reported as no less than 10 µM and the IC50 (p70S6K; Table 1, class symbols per key) is reported as 0.1 to 1 µM.

For `Cc1c(NCCN2CCCC2)cc(OCC(F)(CF)CF)cc1N1CCN(c2ncnc3[nH]nc(C#CCO)c23)CC1` [Entry 288, 3-[4-(4-{5-{[2,3-difluoro-2-(fluoromethyl)pro-pyl]oxy}-2-methyl-3-[(2-pyrrolidin-1-ylethyl)a-mino]phenyl}piperazin-1-yl)-1H-pyrazolo[3,4-d]pyrimidin-3-yl]prop-2-yn-1-ol], the IC50 (AktK; Table 1, class symbols per key) was less than 0.1 µM and the IC50 (p70S6K; Table 1, class symbols per key) was less than 0.1 µM.

`Cc1ccc(Cl)cc1N1CCN(c2ncnc3[nH]nc(C#CCO)c23)CC1` [Entry 393, 3-{4-[4-(5-chloro-2-methylphenyl)piperazin-1-yl]-1H-pyrazolo[3,4-d]pyrimidin-3-yl}prop-2-yn-1-ol] gave an IC50 (AktK) of 0.1 to 1 µM and an IC50 (p70S6K) of less than 0.1 µM.

Compound `CCNC(=O)COc1cccc(N2CCN(c3ncnc4[nH]nc(Br)c34)CC2)c1` [Entry 139, 2-({3-[4-(3-bromo-1H-pyrazolo[3,4-d]pyrimidin-4-yl)piperazin-1-yl]phenyl}oxy)-N-ethylacetamide] has an IC50 (AktK; Table 1, class symbols per key) of 1 to 10 µM and an IC50 (p70S6K; Table 1, class symbols per key) of less than 0.1 µM.

`Cc1c(OCCCN2CCCC2)cc(Cl)cc1N1CCN(c2ncnc3[nH]nc(C(F)(F)F)c23)CC1` [Entry 68, 4-(4-{5-chloro-2-methyl-3-[(3-pyrrolidin-1-ylpropyl)oxy]phenyl}piperazin-1-yl)-3-(trifluoromethyl)-1H-pyrazolo[3,4-d]pyrimidine] showed an IC50 (AktK; Table 1, class symbols per key) of 0.1 to 1 µM and an IC50 (p70S6K; Table 1, class symbols per key) of less than 0.1 µM.

Work on `Cc1c(NCCN2CCCC2)cc(Cl)cc1N1CCN(c2ncnc3[nH]nc(Br)c23)CC1` [Entry 29, 3-[4-(3-bromo-1H-pyrazolo[3,4-d]pyrimidin-4-yl)piperazin-1-yl]-5-chloro-2-methyl-N-(2-pyrrolidin-1-ylethyl)aniline] yielded an IC50 (AktK; Table 1, class symbols per key) of less than 0.1 µM and an IC50 (p70S6K; Table 1, class symbols per key) of less than 0.1 µM.

Compound `Cc1c(OCC2CCN(C)CC2)cc(Cl)cc1N1CCN(c2ncnc3[nH]nc(Br)c23)CC1` [Entry 88, 3-bromo-4-[4-(5-chloro-2-methyl-3-{[(1-methyl-piperidin-4-yl)methyl]oxy}phenyl)piperazin-1-yl]-1H-pyrazolo[3,4-d]pyrimidine] has an IC50 (AktK; Table 1, class symbols per key) of less than 0.1 µM and an IC50 (p70S6K; Table 1, class symbols per key) of less than 0.1 µM.

In the case of `Cc1cccc(N2CCN(c3ncnc4[nH]nc(Br)c34)CC2C)c1` (centres unmarked) [Entry 158, 3-bromo-4-[3-methyl-4-(3-methylphenyl)piperazin-1-yl]-1H-pyrazolo[3,4-d]pyrimidine], the IC50 (AktK; Table 1, class symbols per key) is reported as 1 to 10 µM and the IC50 (p70S6K; Table 1, class symbols per key) is reported as less than 0.1 µM.

In the case of `Cc1c(NCCN2CCCC2)cc(OCC(C)C)cc1N1CCN(c2ncnc3[nH]nc(Br)c23)CC1` [Entry 184, 3-[4-(3-bromo-1H-pyrazolo[3,4-d]pyrimidin-4-yl)piperazin-1-yl]-2-methyl-5-[(2-methyl-propyl)oxy]-N-(2-pyrrolidin-1-ylethyl)aniline], the IC50 (AktK; Table 1, class symbols per key) is reported as less than 0.1 µM and the IC50 (p70S6K; Table 1, class symbols per key) is reported as less than 0.1 µM.

`CCc1n[nH]c2ncnc(N3CCN(c4cc(Cl)cc(C(=O)NCCN(C)C)c4OC)CC3)c12` [Entry 374, 5-chloro-N-[2-(dimethylamino)ethyl]-3-[4-(3-ethyl-1H-pyrazolo[3,4-d]pyrimidin-4-yl)piperazin-1-yl]-2-(methyloxy)benzamide] was tested, and the IC50 (AktK) was 1 to 10 µM and the IC50 (p70S6K) was less than 0.1 µM.

Work on `CCc1n[nH]c2ncnc(N3CCN(c4cc(Cl)cc(NCCN(C)C(C)C)c4C)CC3)c12` [Entry 146, N′-{5-chloro-3-[4-(3-ethyl-1H-pyrazolo[3,4-d]pyrimidin-4-yl)piperazin-1-yl]-2-methylphenyl}-N-methyl-N-(1-methylethyl)ethane-1,2-diamine] yielded an IC50 (AktK; Table 1, class symbols per key) of 0.1 to 1 µM and an IC50 (p70S6K; Table 1, class symbols per key) of less than 0.1 µM.

For `Clc1ccc(N2CCN(c3ncnc4[nH]nc(Br)c34)CC2)c(Cl)c1` [Entry 77, 3-bromo-4-[4-(2,4-dichlorophenyl)piperazin-1-yl]-1H-pyrazolo[3,4-d]pyrimidine], the IC50 (AktK; Table 1, class symbols per key) was no less than 10 µM and the IC50 (p70S6K; Table 1, class symbols per key) was 0.1 to 1 µM.

`CCc1n[nH]c2ncnc(N3CCN(c4cc(Cl)cc(C#CCN(C)C)c4C)CC3)c12` [Entry 385, 3-{5-chloro-3-[4-(3-ethyl-1H-pyrazolo[3,4-d]pyrimidin-4-yl)piperazin-1-yl]-2-methylphenyl}-N,N-dimethylprop-2-yn-1-amine] showed an IC50 (AktK) of 1 to 10 µM and an IC50 (p70S6K) of less than 0.1 µM.

`Cc1c(NCCN2CCCC2)cc(OCC(C)(C)C)cc1N1CCN(c2ncnc3[nH]nc(Br)c23)CC1` [Entry 221, 3-[4-(3-bromo-1H-pyrazolo[3,4-d]pyrimidin-4-yl)piperazin-1-yl]-5-[(2,2-dimethylpropyl)oxy]-2-methyl-N-(2-pyrrolidin-1-ylethyl)aniline] was tested, and the IC50 (AktK; Table 1, class symbols per key) was less than 0.1 µM and the IC50 (p70S6K; Table 1, class symbols per key) was less than 0.1 µM.

Compound `COc1ccc(-c2n[nH]c3ncnc(N4CCN(c5cc(Cl)ccc5C)CC4)c23)cc1` [Entry 356, 4-[4-(5-chloro-2-methylphenyl)piperazin-1-yl]-3-[4-(methyloxy)phenyl]-1H-pyrazolo[3,4-d]pyrimidine] has an IC50 (AktK) of 1 to 10 µM and an IC50 (p70S6K) of 0.1 to 1 µM.

Work on `FC(F)(F)c1ccnc(N2CCN(c3ncnc4[nH]nc(Br)c34)CC2)n1` [Entry 118, 3-bromo-4-{4-[4-(trifluoromethyl)pyrimidin-2-yl]piperazin-1-yl}-1H-pyrazolo[3,4-d]pyrimidine] yielded an IC50 (AktK; Table 1, class symbols per key) of no less than 10 µM and an IC50 (p70S6K; Table 1, class symbols per key) of 0.1 to 1 µM.

`Cc1c(OCCN2CCN(C)CC2)cc(Cl)cc1N1CCN(c2ncnc3[nH]nc(C(F)(F)F)c23)CC1` [Entry 73, 4-[4-(5-chloro-2-methyl-3-{[2-(4-methylpiperazin-1-yl)ethyl]oxy}phenyl)piperazin-1-yl]-3-(trifluoromethyl)-1H-pyrazolo[3,4-d]pyrimidine] gave an IC50 (AktK; Table 1, class symbols per key) of 0.1 to 1 µM and an IC50 (p70S6K; Table 1, class symbols per key) of less than 0.1 µM.

With `Cc1n[nH]c2ncnc(N3CCN(c4cccc(Cl)c4)CC3)c12` [Entry 318, 4-[4-(3-chlorophenyl)piperazin-1-yl]-3-methyl-1H-pyrazolo[3,4-d]pyrimidine] the IC50 (AktK) was no less than 10 µM and the IC50 (p70S6K) was less than 0.1 µM.

For `CCc1n[nH]c2ncnc(N3CCN(c4cc(Cl)cc(CN(C)C)c4OC)CC3)c12` [Entry 377, 1-[5-chloro-3-[4-(3-ethyl-1H-pyrazolo[3,4-d]pyrimidin-4-yl)piperazin-1-yl]-2-(methyloxy)phenyl]-N,N-dimethylmethanamine], the IC50 (AktK) was no less than 10 µM and the IC50 (p70S6K) was 0.1 to 1 µM.

`Cc1c(OCCCN2CCOCC2)cc(Cl)cc1N1CCN(c2ncnc3[nH]nc(C(F)(F)F)c23)CC1` [Entry 40, 4-(4-{5-chloro-2-methyl-3-[(3-morpholin-4-ylpropyl)oxy]phenyl}piperazin-1-yl)-3-(trifluoromethyl)-1H-pyrazolo[3,4-d]pyrimidine] showed an IC50 (AktK; Table 1, class symbols per key) of 1 to 10 µM and an IC50 (p70S6K; Table 1, class symbols per key) of less than 0.1 µM.

For `Cc1c(NCCN2CCCC2)cc(OCC2CCCCC2)cc1N1CCN(c2ncnc3[nH]nc(Br)c23)CC1` [Entry 217, 3-[4-(3-bromo-1H-pyrazolo[3,4-d]pyrimidin-4-yl)piperazin-1-yl]-5-[(cyclohexylmethyl)oxy]-2-methyl-N-(2-pyrrolidin-1-ylethyl)aniline], the IC50 (AktK; Table 1, class symbols per key) was 0.1 to 1 µM and the IC50 (p70S6K; Table 1, class symbols per key) was less than 0.1 µM.

For `CCc1n[nH]c2ncnc(N3CCN(c4cc(Cl)cc(N5CCOCC5)c4C)CC3)c12` [Entry 361, 4-[4-(5-chloro-2-methyl-3-morpholin-4-ylphenyl)piperazin-1-yl]-3-ethyl-1H-pyrazolo[3,4-d]pyrimidine], the IC50 (AktK) was 1 to 10 µM and the IC50 (p70S6K) was 0.1 to 1 µM.

For `FC(F)(F)c1ccccc1N1CCN(c2ncnc3[nH]nc(Br)c23)CC1` [Entry 151, 3-bromo-4-{4-[2-(trifluoromethyl)phenyl]piperazin-1-yl}-1H-pyrazolo[3,4-d]pyrimidine], the IC50 (AktK; Table 1, class symbols per key) was no less than 10 µM and the IC50 (p70S6K; Table 1, class symbols per key) was 0.1 to 1 µM.

Compound `CCc1n[nH]c2ncnc(N3CCN(c4cccc(Cl)c4)CC3)c12` [Entry 333, 4-[4-(3-chlorophenyl)piperazin-1-yl]-3-ethyl-1H-pyrazolo[3,4-d]pyrimidine] has an IC50 (AktK) of 1 to 10 µM and an IC50 (p70S6K) of less than 0.1 µM.

`Cc1ccc(N2CCN(c3ncnc4[nH]nc(Br)c34)CC2)cc1C` [Entry 96, 3-bromo-4-[4-(3,4-dimethylphenyl)piperazin-1-yl]-1H-pyrazolo[3,4-d]pyrimidine] showed an IC50 (AktK; Table 1, class symbols per key) of no less than 10 µM and an IC50 (p70S6K; Table 1, class symbols per key) of 0.1 to 1 µM.

In the case of `CCc1n[nH]c2ncnc(N3CCN(c4cc(F)ccc4F)CC3)c12` [Entry 132, 4-[4-(2,5-difluorophenyl)piperazin-1-yl]-3-ethyl-1H-pyrazolo[3,4-d]pyrimidine], the IC50 (AktK; Table 1, class symbols per key) is reported as no less than 10 µM and the IC50 (p70S6K; Table 1, class symbols per key) is reported as 0.1 to 1 µM.

For `CCN(CC)CCNc1cc(Cl)cc(N2CCN(c3ncnc4[nH]nc(Br)c34)CC2)c1C` [Entry 28, N′-{3-[4-(3-bromo-1H-pyrazolo[3,4-d]pyrimidin-4-yl)piperazin-1-yl]-5-chloro-2-methylphenyl}-N,N-diethylethane-1,2-diamine], the IC50 (AktK; Table 1, class symbols per key) was less than 0.1 µM and the IC50 (p70S6K; Table 1, class symbols per key) was less than 0.1 µM.

“3-[4-(3-bromo-1H-pyrazolo[3,4-d]pyrimidin-4-yl)piperazin-1-yl]-5-{[(difluoromethyl)oxy]meth-yl}-2-methyl-N-(2-pyrrolidin-1-ylethyl)aniline [Entry 254]” gave an IC50 (AktK; Table 1, class symbols per key) of less than 0.1 µM and an IC50 (p70S6K; Table 1, class symbols per key) of less than 0.1 µM.

In the case of `Cc1ccc(Cl)cc1N1CCN(c2ncnc3[nH]nc(C#CCN4CCCC4)c23)CC1` [Entry 397, 4-[4-(5-chloro-2-methylphenyl)piperazin-1-yl]-3-(3-pyrrolidin-1-ylprop-1-yn-1-yl)-1H-pyrazolo[3,4-d]pyrimidine], the IC50 (AktK) is reported as 1 to 10 µM and the IC50 (p70S6K) is reported as 0.1 to 1 µM.
